Several values for one entry are separate records, joined by “and”; a condition that tells them apart may be missing. Identical values can stand only once.
Details: Liquid, Vibrating wire viscometry

CCCCC(CC)COC(=O)c1ccc(C(=O)OCC(CC)CCCC)c(C(=O)OCC(CC)CCCC)c1 (stereo unspecified) [tris(2-ethylhexyl) trimellitate]
Details | viscosity
343.14 K, 49870 kPa | 53.82 mPa·s and 53.79 mPa·s
343.14 K, 50340 kPa | 53.74 mPa·s
343.14 K, 50350 kPa | 53.88 mPa·s
343.14 K, 50360 kPa | 53.81 mPa·s and 53.95 mPa·s and 53.91 mPa·s
343.14 K, 65050 kPa | 68.46 mPa·s
343.14 K, 65060 kPa | 68.25 mPa·s
343.14 K, 65070 kPa | 68.22 mPa·s
343.14 K, 65080 kPa | 68.37 mPa·s
343.14 K, 65100 kPa | 68.38 mPa·s
343.15 K, 1040 kPa | 22.81 mPa·s
343.15 K, 1050 kPa | 22.74 mPa·s
343.15 K, 1060 kPa | 22.78 mPa·s
343.15 K, 1070 kPa | 22.74 mPa·s
343.15 K, 1090 kPa | 22.81 mPa·s
343.15 K, 2540 kPa | 23.48 mPa·s and 23.4 mPa·s
343.15 K, 2580 kPa | 23.42 mPa·s
343.15 K, 4800 kPa | 24.49 mPa·s
343.15 K, 4820 kPa | 24.51 mPa·s
343.15 K, 4880 kPa | 24.44 mPa·s
343.15 K, 4900 kPa | 24.44 mPa·s and 24.52 mPa·s and 24.43 mPa·s
343.15 K, 7530 kPa | 25.82 mPa·s
343.15 K, 7590 kPa | 25.76 mPa·s
343.15 K, 7630 kPa | 25.78 mPa·s
343.15 K, 7650 kPa | 25.77 mPa·s
343.15 K, 10140 kPa | 27.08 mPa·s
343.15 K, 15040 kPa | 29.65 mPa·s and 29.63 mPa·s
343.15 K, 15050 kPa | 29.64 mPa·s
343.15 K, 15060 kPa | 29.74 mPa·s
343.15 K, 15070 kPa | 29.73 mPa·s
343.15 K, 15090 kPa | 29.74 mPa·s
358.18 K, 2460 kPa | 14.15 mPa·s
358.18 K, 2470 kPa | 14.13 mPa·s
358.18 K, 2480 kPa | 14.11 mPa·s
358.18 K, 2490 kPa | 14.11 mPa·s
358.18 K, 2500 kPa | 14.16 mPa·s
358.18 K, 2530 kPa | 14.14 mPa·s
358.18 K, 4840 kPa | 14.65 mPa·s
358.18 K, 4860 kPa | 14.68 mPa·s
358.18 K, 4920 kPa | 14.69 mPa·s
358.18 K, 4960 kPa | 14.64 mPa·s
358.18 K, 4990 kPa | 14.64 mPa·s
358.18 K, 7360 kPa | 15.35 mPa·s
358.18 K, 7370 kPa | 15.37 mPa·s
358.18 K, 7390 kPa | 15.35 mPa·s
358.18 K, 7410 kPa | 15.34 mPa·s
358.18 K, 7420 kPa | 15.37 mPa·s and 15.38 mPa·s
358.18 K, 10350 kPa | 16.11 mPa·s
358.18 K, 10380 kPa | 16.12 mPa·s
358.18 K, 10410 kPa | 16.11 mPa·s
358.18 K, 15320 kPa | 17.52 mPa·s
358.18 K, 20050 kPa | 18.99 mPa·s
358.18 K, 20070 kPa | 19.03 mPa·s and 18.97 mPa·s
358.18 K, 20090 kPa | 18.99 mPa·s
358.18 K, 20120 kPa | 18.99 mPa·s
358.18 K, 20130 kPa | 19.05 mPa·s
358.18 K, 40240 kPa | 26.25 mPa·s
358.18 K, 40250 kPa | 26.27 mPa·s
358.18 K, 40260 kPa | 26.24 mPa·s
358.18 K, 40280 kPa | 26.21 mPa·s
358.18 K, 40290 kPa | 26.24 mPa·s
358.19 K, 1290 kPa | 13.79 mPa·s
358.19 K, 1330 kPa | 13.79 mPa·s
358.19 K, 1380 kPa | 13.85 mPa·s
358.19 K, 10470 kPa | 16.13 mPa·s
358.19 K, 15340 kPa | 17.51 mPa·s
358.19 K, 15360 kPa | 17.51 mPa·s
358.19 K, 15370 kPa | 17.52 mPa·s
358.19 K, 15390 kPa | 17.53 mPa·s
358.19 K, 15410 kPa | 17.54 mPa·s
358.19 K, 30310 kPa | 22.42 mPa·s
358.19 K, 30360 kPa | 22.4 mPa·s
358.19 K, 30380 kPa | 22.43 mPa·s and 22.47 mPa·s and 22.46 mPa·s
358.19 K, 50360 kPa | 30.62 mPa·s
358.19 K, 50380 kPa | 30.63 mPa·s
358.19 K, 50390 kPa | 30.61 mPa·s
358.19 K, 50400 kPa | 30.65 mPa·s
358.19 K, 50420 kPa | 30.65 mPa·s
358.19 K, 65540 kPa | 38.26 mPa·s
358.19 K, 65550 kPa | 38.23 mPa·s
358.19 K, 65570 kPa | 38.28 mPa·s
358.19 K, 65600 kPa | 38.23 mPa·s
358.19 K, 65610 kPa | 38.23 mPa·s
373.17 K, 1070 kPa | 8.988 mPa·s and 8.981 mPa·s and 8.984 mPa·s
373.17 K, 1080 kPa | 8.99 mPa·s
373.17 K, 2690 kPa | 9.227 mPa·s
373.17 K, 2720 kPa | 9.242 mPa·s
373.17 K, 2730 kPa | 9.241 mPa·s
373.17 K, 5100 kPa | 9.651 mPa·s
373.17 K, 5110 kPa | 9.649 mPa·s and 9.654 mPa·s
373.17 K, 5120 kPa | 9.651 mPa·s
373.17 K, 5130 kPa | 9.669 mPa·s
373.17 K, 5140 kPa | 9.653 mPa·s
373.17 K, 7440 kPa | 10.06 mPa·s
373.17 K, 7470 kPa | 10.05 mPa·s
373.17 K, 7480 kPa | 10.03 mPa·s
373.17 K, 7500 kPa | 10.03 mPa·s
373.17 K, 10430 kPa | 10.53 mPa·s
373.17 K, 10450 kPa | 10.57 mPa·s
373.17 K, 15160 kPa | 11.29 mPa·s
373.17 K, 15180 kPa | 11.28 mPa·s
373.17 K, 15210 kPa | 11.32 mPa·s and 11.33 mPa·s and 11.27 mPa·s
373.17 K, 65290 kPa | 23.71 mPa·s
373.18 K, 2460 kPa | 9.209 mPa·s and 9.224 mPa·s and 9.213 mPa·s
373.18 K, 2470 kPa | 9.234 mPa·s
373.18 K, 2500 kPa | 9.245 mPa·s
373.18 K, 2710 kPa | 9.252 mPa·s
373.18 K, 10440 kPa | 10.57 mPa·s
373.18 K, 10450 kPa | 10.52 mPa·s
373.18 K, 10460 kPa | 10.56 mPa·s
373.18 K, 20250 kPa | 12.27 mPa·s and 12.26 mPa·s
373.18 K, 20260 kPa | 12.27 mPa·s
373.18 K, 20270 kPa | 12.29 mPa·s
373.18 K, 20290 kPa | 12.3 mPa·s
373.18 K, 20320 kPa | 12.28 mPa·s
373.18 K, 29980 kPa | 14.31 mPa·s
373.18 K, 29990 kPa | 14.32 mPa·s
373.18 K, 30000 kPa | 14.27 mPa·s
373.18 K, 30010 kPa | 14.3 mPa·s
373.18 K, 30030 kPa | 14.28 mPa·s
373.18 K, 40130 kPa | 16.58 mPa·s
373.18 K, 40140 kPa | 16.57 mPa·s
373.18 K, 40150 kPa | 16.63 mPa·s
373.18 K, 40170 kPa | 16.61 mPa·s
373.18 K, 40190 kPa | 16.64 mPa·s
373.18 K, 50280 kPa | 19.18 mPa·s
373.18 K, 50290 kPa | 19.21 mPa·s and 19.23 mPa·s
373.18 K, 50310 kPa | 19.17 mPa·s
373.18 K, 50320 kPa | 19.23 mPa·s
373.18 K, 65330 kPa | 23.7 mPa·s
373.18 K, 65350 kPa | 23.72 mPa·s
373.18 K, 65370 kPa | 23.68 mPa·s

Reference: the NIST ThermoML archive (doi:10.1016/j.fluid.2014.10.002)
